# Laboratory results taken from ChEMBL document CHEMBL3779836, “Inhibition of Histone Demethylases Offers a Novel and Promising Approach for the Treatment of Cancer and Other Diseases” (ACS Med Chem Lett, 2016).
# Molecular target: Lysine-specific demethylase 6A (Homo sapiens, UniProt O15550)
# Experiment: Inhibition of human KDM6A preincubated for 10 mins followed by substrate addition by AlphaLISA assay
# Chain of Lysine-specific demethylase 6A (O15550 whole entry): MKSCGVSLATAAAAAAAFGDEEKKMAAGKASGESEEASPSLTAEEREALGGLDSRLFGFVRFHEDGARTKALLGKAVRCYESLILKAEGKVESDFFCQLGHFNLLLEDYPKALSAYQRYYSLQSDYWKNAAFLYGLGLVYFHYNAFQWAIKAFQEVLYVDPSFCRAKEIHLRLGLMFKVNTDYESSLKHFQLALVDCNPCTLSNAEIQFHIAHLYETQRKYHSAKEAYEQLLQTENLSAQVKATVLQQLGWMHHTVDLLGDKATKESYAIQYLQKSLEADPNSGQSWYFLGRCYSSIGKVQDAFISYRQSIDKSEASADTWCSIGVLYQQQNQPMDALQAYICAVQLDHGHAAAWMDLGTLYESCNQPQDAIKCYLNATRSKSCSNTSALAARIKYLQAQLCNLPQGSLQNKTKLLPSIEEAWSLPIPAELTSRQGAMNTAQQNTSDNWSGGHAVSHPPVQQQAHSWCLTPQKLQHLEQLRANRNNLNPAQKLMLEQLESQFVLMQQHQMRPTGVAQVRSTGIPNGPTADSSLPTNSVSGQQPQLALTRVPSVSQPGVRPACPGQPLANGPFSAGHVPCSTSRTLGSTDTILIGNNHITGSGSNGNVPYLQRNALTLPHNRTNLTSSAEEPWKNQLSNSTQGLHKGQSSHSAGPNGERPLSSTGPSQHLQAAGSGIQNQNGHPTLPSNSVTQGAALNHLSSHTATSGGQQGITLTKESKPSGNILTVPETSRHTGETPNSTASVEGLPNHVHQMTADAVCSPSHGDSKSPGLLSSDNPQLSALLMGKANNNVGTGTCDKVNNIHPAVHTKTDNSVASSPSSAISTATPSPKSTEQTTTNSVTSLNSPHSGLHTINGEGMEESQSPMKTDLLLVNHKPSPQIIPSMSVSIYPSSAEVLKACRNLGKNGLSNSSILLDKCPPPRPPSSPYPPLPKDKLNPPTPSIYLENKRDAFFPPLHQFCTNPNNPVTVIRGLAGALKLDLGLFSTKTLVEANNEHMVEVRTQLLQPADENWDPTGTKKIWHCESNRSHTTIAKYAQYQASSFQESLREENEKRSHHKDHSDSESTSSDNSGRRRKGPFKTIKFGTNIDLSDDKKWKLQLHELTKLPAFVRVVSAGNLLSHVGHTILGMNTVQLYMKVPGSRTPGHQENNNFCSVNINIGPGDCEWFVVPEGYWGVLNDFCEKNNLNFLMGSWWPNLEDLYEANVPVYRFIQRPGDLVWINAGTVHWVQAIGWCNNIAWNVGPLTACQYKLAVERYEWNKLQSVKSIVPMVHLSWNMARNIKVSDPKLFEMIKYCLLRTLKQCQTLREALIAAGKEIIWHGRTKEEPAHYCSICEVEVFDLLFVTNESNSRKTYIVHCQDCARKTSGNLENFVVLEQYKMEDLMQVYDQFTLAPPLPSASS
row,Compound,IC50
1,Cc1cn2c(n1)CCN(Cc1cc(C(=O)O)ccn1)CC2,> 2500 nM
2,C[C@H](c1ccccc1)N1CCC[C@H](CNCc2cc(C(=O)O)ccn2)C1=O,> 2500 nM
3,C[C@H](c1ccccc1)N1CCC[C@@H](CNCc2cc(C(=O)O)ccn2)C1=O,> 2500 nM
4,C[C@H](c1ccccc1)N1CC[C@@H](CNCc2cc(C(=O)O)ccn2)C1=O,> 2500 nM
5,COc1ccc([C@@H](C)N2CCC[C@@H](CNCc3cc(C(=O)O)ccn3)C2=O)cc1,> 2500 nM
6,CCN1CCC(CNCc2cc(C(=O)O)ccn2)C1=O (stereo not given),> 2500 nM

# Molecular target: Lysine-specific demethylase 5B (Homo sapiens, UniProt Q9UGL1)
# Sequence (Q9UGL1 whole entry): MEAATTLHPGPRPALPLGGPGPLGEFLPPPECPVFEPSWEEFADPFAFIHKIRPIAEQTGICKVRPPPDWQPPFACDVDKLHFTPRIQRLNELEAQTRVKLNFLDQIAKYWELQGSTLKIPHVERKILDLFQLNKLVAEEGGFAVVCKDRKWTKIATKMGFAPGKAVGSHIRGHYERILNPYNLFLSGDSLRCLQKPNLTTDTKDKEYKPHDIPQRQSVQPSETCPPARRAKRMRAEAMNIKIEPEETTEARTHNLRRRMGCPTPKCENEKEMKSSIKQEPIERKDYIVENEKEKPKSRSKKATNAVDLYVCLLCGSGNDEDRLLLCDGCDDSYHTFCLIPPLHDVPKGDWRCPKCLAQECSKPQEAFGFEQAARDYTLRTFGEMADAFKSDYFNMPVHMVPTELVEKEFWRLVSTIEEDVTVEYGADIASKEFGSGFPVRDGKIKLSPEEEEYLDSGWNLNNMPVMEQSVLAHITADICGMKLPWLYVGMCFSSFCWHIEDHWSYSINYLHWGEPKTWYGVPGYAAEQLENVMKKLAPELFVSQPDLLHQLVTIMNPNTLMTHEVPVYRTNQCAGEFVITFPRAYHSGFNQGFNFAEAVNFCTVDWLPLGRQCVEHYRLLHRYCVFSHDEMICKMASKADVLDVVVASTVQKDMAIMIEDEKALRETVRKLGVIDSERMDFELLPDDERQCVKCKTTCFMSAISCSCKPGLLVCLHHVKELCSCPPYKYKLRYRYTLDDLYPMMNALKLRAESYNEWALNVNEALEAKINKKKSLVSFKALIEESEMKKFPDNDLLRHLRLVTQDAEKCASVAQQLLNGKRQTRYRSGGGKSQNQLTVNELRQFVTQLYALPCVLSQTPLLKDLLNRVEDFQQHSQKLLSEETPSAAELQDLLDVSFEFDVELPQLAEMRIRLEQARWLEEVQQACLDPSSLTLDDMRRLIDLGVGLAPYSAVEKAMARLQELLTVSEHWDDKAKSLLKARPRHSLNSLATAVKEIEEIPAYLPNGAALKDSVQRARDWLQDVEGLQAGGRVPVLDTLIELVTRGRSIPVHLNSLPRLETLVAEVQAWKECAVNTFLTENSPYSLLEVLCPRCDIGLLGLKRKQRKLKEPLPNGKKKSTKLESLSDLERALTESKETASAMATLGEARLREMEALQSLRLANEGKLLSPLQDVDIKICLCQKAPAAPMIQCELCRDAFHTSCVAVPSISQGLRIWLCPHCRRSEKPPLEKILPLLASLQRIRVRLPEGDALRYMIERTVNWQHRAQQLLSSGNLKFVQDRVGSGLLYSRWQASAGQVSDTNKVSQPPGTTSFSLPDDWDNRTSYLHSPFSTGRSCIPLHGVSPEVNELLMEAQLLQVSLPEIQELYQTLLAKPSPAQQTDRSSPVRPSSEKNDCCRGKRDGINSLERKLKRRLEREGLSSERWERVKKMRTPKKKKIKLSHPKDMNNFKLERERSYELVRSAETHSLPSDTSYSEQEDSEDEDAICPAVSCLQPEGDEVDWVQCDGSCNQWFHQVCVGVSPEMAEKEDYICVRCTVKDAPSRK
# Experiment: Inhibition of human KDM5B preincubated for 10 mins followed by substrate addition by AlphaLISA assay
row,Compound,IC50
1,Cc1cn2c(n1)CCN(Cc1cc(C(=O)O)ccn1)CC2,< 250 nM
2,C[C@H](c1ccccc1)N1CCC[C@H](CNCc2cc(C(=O)O)ccn2)C1=O,< 250 nM
3,C[C@H](c1ccccc1)N1CCC[C@@H](CNCc2cc(C(=O)O)ccn2)C1=O,< 250 nM
4,C[C@H](c1ccccc1)N1CC[C@@H](CNCc2cc(C(=O)O)ccn2)C1=O,< 250 nM
5,COc1ccc([C@@H](C)N2CCC[C@@H](CNCc3cc(C(=O)O)ccn3)C2=O)cc1,< 250 nM
6,CCN1CCC(CNCc2cc(C(=O)O)ccn2)C1=O (stereo not given),< 250 nM

# Molecular target: T1, Lysine-specific demethylase 4C (Homo sapiens, UniProt Q9H3R0)
# T1 sequence (Q9H3R0 whole entry): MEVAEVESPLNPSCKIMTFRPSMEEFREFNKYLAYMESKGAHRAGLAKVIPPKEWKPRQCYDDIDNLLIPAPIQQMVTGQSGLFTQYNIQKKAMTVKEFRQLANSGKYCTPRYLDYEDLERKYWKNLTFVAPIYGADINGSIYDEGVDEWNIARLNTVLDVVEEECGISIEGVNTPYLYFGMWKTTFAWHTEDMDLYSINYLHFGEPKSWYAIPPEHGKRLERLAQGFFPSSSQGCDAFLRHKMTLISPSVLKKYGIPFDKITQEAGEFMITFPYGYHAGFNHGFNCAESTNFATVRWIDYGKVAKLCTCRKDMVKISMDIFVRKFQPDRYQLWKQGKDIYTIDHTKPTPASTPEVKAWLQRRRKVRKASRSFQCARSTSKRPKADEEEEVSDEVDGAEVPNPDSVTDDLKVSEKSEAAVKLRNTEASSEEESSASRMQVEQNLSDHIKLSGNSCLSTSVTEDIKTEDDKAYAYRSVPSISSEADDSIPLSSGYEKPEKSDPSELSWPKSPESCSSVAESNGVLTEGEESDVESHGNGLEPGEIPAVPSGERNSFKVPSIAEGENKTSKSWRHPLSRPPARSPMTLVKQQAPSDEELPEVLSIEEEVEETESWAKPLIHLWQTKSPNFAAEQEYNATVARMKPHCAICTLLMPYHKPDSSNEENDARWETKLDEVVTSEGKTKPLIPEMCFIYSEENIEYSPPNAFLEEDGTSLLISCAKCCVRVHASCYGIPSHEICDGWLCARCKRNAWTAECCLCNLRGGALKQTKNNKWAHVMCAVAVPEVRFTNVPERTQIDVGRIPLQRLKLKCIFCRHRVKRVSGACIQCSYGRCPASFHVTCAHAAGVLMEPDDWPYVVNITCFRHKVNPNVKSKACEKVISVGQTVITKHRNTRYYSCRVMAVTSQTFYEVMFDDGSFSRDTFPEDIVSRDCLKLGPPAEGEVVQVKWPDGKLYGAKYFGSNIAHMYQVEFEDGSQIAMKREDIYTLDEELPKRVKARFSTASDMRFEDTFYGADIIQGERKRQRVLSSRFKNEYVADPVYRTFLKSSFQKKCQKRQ
# Experiment: Inhibition of human KDM4C preincubated for 10 mins followed by substrate addition by AlphaLISA assay
row,Compound,IC50
1,Cc1cn2c(n1)CCN(Cc1cc(C(=O)O)ccn1)CC2,< 250 nM
2,C[C@H](c1ccccc1)N1CCC[C@H](CNCc2cc(C(=O)O)ccn2)C1=O,< 250 nM
3,C[C@H](c1ccccc1)N1CCC[C@@H](CNCc2cc(C(=O)O)ccn2)C1=O,< 250 nM
4,C[C@H](c1ccccc1)N1CC[C@@H](CNCc2cc(C(=O)O)ccn2)C1=O,< 250 nM
5,COc1ccc([C@@H](C)N2CCC[C@@H](CNCc3cc(C(=O)O)ccn3)C2=O)cc1,< 250 nM
6,CCN1CCC(CNCc2cc(C(=O)O)ccn2)C1=O (stereo not given),< 250 nM

# Molecular target: Histone lysine demethylase PHF8 (Homo sapiens, UniProt Q9UPP1)
# Sequence (Q9UPP1 whole entry): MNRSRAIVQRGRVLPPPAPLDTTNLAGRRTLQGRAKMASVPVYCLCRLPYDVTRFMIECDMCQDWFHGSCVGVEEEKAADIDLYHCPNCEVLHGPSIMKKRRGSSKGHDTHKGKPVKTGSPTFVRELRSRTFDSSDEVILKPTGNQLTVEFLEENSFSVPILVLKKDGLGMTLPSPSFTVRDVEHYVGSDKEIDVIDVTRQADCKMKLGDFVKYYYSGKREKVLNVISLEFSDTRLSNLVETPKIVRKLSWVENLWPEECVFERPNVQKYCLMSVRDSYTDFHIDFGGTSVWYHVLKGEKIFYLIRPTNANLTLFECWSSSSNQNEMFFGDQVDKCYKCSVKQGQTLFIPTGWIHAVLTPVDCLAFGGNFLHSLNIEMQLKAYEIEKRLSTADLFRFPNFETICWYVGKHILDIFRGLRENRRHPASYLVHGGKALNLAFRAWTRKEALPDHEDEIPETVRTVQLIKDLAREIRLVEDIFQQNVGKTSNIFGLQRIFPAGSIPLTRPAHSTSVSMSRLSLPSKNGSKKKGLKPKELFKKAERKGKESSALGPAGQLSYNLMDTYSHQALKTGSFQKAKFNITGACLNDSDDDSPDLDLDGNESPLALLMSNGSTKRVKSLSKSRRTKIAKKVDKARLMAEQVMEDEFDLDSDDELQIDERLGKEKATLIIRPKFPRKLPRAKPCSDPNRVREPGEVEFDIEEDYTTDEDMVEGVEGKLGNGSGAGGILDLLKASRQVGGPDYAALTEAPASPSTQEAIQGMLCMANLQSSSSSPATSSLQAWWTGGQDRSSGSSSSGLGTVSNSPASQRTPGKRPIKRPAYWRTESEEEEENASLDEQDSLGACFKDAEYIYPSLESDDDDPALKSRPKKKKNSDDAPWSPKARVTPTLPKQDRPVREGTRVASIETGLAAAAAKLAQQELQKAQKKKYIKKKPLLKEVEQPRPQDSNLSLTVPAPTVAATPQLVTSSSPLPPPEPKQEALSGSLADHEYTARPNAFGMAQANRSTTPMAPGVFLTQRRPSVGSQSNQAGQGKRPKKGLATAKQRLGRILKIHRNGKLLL
# Experiment: Inhibition of human PHF8 preincubated for 10 mins followed by substrate addition by AlphaLISA assay
row,Compound,IC50
1,Cc1cn2c(n1)CCN(Cc1cc(C(=O)O)ccn1)CC2,< 250 nM
2,C[C@H](c1ccccc1)N1CCC[C@H](CNCc2cc(C(=O)O)ccn2)C1=O,< 250 nM
3,C[C@H](c1ccccc1)N1CCC[C@@H](CNCc2cc(C(=O)O)ccn2)C1=O,< 250 nM
4,C[C@H](c1ccccc1)N1CC[C@@H](CNCc2cc(C(=O)O)ccn2)C1=O,< 250 nM
5,COc1ccc([C@@H](C)N2CCC[C@@H](CNCc3cc(C(=O)O)ccn3)C2=O)cc1,< 250 nM
6,CCN1CCC(CNCc2cc(C(=O)O)ccn2)C1=O (stereo not given),< 250 nM

# Molecular target: T2, Lysine-specific demethylase 2B (Homo sapiens, UniProt Q8NHM5)
# T2 sequence (Q8NHM5 whole entry): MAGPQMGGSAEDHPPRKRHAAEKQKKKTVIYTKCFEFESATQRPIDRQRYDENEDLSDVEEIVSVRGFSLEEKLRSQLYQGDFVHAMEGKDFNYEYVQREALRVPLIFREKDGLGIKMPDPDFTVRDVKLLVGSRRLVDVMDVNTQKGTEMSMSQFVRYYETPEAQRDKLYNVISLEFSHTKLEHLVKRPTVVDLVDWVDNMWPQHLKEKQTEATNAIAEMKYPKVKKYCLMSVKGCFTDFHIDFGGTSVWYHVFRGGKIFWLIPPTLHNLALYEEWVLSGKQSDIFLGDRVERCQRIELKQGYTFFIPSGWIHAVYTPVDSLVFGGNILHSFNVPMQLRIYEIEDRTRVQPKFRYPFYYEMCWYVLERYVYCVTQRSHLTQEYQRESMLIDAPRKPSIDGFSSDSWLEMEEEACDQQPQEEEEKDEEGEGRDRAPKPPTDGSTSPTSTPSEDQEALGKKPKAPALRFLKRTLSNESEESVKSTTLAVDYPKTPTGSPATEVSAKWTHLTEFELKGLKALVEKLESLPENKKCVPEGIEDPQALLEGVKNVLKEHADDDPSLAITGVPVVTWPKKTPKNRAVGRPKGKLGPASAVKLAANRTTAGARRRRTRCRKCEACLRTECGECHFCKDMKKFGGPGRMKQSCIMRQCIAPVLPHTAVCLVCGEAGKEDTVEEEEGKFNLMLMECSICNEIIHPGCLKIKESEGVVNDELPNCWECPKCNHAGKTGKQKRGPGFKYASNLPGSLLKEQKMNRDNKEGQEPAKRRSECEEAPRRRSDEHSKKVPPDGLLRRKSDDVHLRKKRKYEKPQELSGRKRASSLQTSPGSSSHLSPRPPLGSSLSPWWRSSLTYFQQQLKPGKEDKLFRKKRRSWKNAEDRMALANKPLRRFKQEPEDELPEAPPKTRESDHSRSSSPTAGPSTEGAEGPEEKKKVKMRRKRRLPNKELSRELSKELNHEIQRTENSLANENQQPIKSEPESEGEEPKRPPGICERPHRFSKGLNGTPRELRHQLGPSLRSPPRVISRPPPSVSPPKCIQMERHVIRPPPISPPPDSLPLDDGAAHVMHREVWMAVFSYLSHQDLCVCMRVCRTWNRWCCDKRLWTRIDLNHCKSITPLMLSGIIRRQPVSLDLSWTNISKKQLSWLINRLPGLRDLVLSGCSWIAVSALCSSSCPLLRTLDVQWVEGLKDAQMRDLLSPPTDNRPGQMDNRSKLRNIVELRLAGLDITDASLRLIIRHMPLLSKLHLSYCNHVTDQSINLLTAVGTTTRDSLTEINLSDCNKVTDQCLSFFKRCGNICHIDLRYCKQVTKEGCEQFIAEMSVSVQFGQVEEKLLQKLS
# Experiment: Inhibition of human KDM2B preincubated for 10 mins followed by substrate addition by AlphaLISA assay
row,Compound,IC50
1,Cc1cn2c(n1)CCN(Cc1cc(C(=O)O)ccn1)CC2,> 2500 nM
2,C[C@H](c1ccccc1)N1CCC[C@H](CNCc2cc(C(=O)O)ccn2)C1=O,< 250 nM
3,C[C@H](c1ccccc1)N1CCC[C@@H](CNCc2cc(C(=O)O)ccn2)C1=O,< 250 nM
4,C[C@H](c1ccccc1)N1CC[C@@H](CNCc2cc(C(=O)O)ccn2)C1=O,< 250 nM
5,COc1ccc([C@@H](C)N2CCC[C@@H](CNCc3cc(C(=O)O)ccn3)C2=O)cc1,< 250 nM
6,CCN1CCC(CNCc2cc(C(=O)O)ccn2)C1=O (stereo not given),< 250 nM
